From patent publication US20150164899A1, “INHIBITION OF ADAPTOR ASSOCIATED KINASE 1 FOR THE TREATMENT OF PAIN” (priority 2012, published 2015)
Read-outs that look alike come from different tables or passages of the source.

Molecular target: T1, AAK1 (full length human) in transfected HEK293F cells (Homo sapiens, UniProt Q2M2I8)
T1 construct: expressed in transfected cells; host or cells: HEK293F
Assay: HEK281 cell-based assay (phospho-mu2 Western blot)
Conditions: HEK281 cell-based assay, read-out: CBA IC50
Procedure: HEK293F cells were cultured in media containing DMEM (Gibco, cat. #11965), 10% FBS (SAFC Biosciences, cat. #12103C), 1×GPS (glutamine, penicillin and streptomycin). On day one, cells were plated on a 10 cm dish so that they are ˜80% confluent at time of transfection. Roughly 12 million cells were in a 10 cm dish at time of transfection. On day two, each dish was transfected with 48 ug DNA and 144 ul Lipofectamine 2000 (Invitrogen, cat.#11668-019). The DNA was comprised of a mixture (per 10 cm dish) containing 3 ug AAK1/HA/pIRES (full length human, NCBI accession no. NP_055726.2), 45 μg Flag/AP2MI/pcDNA (full length human), and 1.5 ml OPTI-MEM. The Lipofectamine 2000 is made up of a mixture (per 10 cm dish) containing 144 μl Lipofectamine 2000 and 1.5 ml OPTI-MEM. Each mixture was transferred to individual 15 ml tubes and incubated at RT for 5 minutes, and then the two mixes were combined and incubated at RT for 20 minutes. Growth media was then aspirated from each 10 cm plate and replaced with 10 ml of DMEM+10% FBS (no GPS). Finally, 3 ml DNA/Lipofectamine mix was added to each 10 cm dish and mix gently followed by incubate of plate overnight at 37° C. and 5% CO2.
On day three, compounds were diluted in 100% DMSO at 1000× final concentration, followed by 3-fold serial dilutions for a total of 5 concentrations tested. Four compounds were tested per 10 cm dish. One ul of each compound dilution was then pipetted into a deep-well, 96-well plate, followed by addition of 500 μl DMEM+0.5% FBS into each well for a 2× final concentration of each compound. Cells were resuspended in a 10 cm dish by simple pipetting (HEK293 cells come off the plate that easy at this point) and then transferred to a 50 ml conical tube and pelleted by centrifugation at 1000 rpm for 5 min. Cell pellets were then resuspended in 2.75 ml DMEM+0.5% FBS per 10 cm dish and 100 μl of cell suspension transferred into each well of 96-well TC plate. Finally, 100 μl of 2× compound diluted in DMEM+0.5% FBS was then added into wells containing cell suspension for a 1× final concentration. Plates were then incubated at 37° C. and 5% CO2 for 3 hours followed by transferring of cell suspensions from each well into 12-tube PCR strips. The PCR strips were spun in a tip rack at 1000 rpm for 5 minutes to pellet cells and media was then removed by pipetting without disturbing the cell pellet.
To prepare for Western Blot analysis, cell pellets were resuspend in 40 ul 1×LDS-PAGE sample buffer (Invitrogen, cat.# NP0008)+2× Halt phophatase and protease inhibitor cocktail (Thermo Scientific, cat.#1861284), followed by sonicating each with microtip sonicator set at 5 for 8-10 seconds. Five ul of 10× NuPage Sample Reducing Agent (with […]) was to each sample followed by heat denaturing at 70 C. for 10 min on PCR machine. A total of 10 μl per sample was loaded into each lane of a 4-20% Tris-Glycine Criterion 26-well gel (Biorad, cat.#345-0034) for the phospho-mu2 blot and 10 μl per lane in a 4-12% Bis-Tris (+MES buffer) NuPAGE 26-well gel (Invitrogen, cat.# WG1403BX10) for the mu2 blot. For controls, 2 ng of phospho-mu2 or 20 ng mu2/Flag proteins were loaded in the last well of each gel. After SDS-PAGE, samples on each gel were transferred to PVDF membrane using an iBlot and membranes were blocked for one hour in TBST+5% milk, followed by wash 3× for 5-10 min with TBST. Criterion gels were probed with rabbit anti-phospho-mu2 (1:5000; a rabbit polyclonal antibody produced by New England Peptide and affinity purified at Lexicon) in TBST+5% BSA, whereas, NuPAGE gels were probed with mouse anti-Flag (1:500; Sigma, cat.# F1804) in TBST+5% milk, and these primary antibodies were incubated overnight at 4° C. on a rocker.

[1] = Table 1 imidazo[1,2-b]pyridazines
[2] = pyrazolo[1,5-a]pyrimidine-based inhibitors

T1 sequence (Q2M2I8 1-863 isoform Q2M2I8-2): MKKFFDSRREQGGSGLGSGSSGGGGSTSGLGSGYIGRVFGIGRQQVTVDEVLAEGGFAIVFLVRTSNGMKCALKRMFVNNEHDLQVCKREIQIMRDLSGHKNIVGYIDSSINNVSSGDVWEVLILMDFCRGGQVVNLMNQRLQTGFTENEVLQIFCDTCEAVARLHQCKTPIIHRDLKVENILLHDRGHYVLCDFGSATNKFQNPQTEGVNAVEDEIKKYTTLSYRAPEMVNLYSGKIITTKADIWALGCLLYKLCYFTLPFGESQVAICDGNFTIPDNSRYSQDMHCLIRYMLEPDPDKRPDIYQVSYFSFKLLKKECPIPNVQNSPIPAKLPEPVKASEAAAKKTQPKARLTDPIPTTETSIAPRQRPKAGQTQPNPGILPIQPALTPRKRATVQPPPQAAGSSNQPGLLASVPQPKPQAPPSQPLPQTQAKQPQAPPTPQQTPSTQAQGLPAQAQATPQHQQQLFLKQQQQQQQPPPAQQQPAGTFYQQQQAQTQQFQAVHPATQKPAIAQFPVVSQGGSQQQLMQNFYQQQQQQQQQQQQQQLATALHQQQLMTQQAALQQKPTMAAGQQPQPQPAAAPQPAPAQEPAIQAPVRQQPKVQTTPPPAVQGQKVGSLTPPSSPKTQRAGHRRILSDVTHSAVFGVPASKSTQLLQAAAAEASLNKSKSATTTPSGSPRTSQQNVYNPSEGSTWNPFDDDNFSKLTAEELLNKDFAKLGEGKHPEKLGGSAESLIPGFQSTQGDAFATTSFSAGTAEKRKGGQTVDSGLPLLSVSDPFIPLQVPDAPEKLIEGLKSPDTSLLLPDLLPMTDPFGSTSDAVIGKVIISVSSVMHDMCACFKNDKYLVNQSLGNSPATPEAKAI

IC50 [1]	IC50 [2]	Structure (SMILES)
≤ 100 nM		COc1cnccc1-c1cnc2ccc(-c3cccc(C(=O)CCC(C)C)c3)nn12
≤ 100 nM		CC(C)CCC(=O)c1cccc(-c2ccc3ncc(-c4ccc(CN)cc4)n3n2)c1
≤ 100 nM		CC(=O)c1cccc(-c2ccc3ncc(-c4ccc(CN)cc4)n3n2)c1
	≤ 10 nM	COc1cnccc1-c1cnn2ccc(NCCc3ccccc3OC(F)(F)F)nc12
≤ 1000 nM		CCCCNc1ccc2ncc(-c3ccc(CN)c(F)c3)n2n1
	≤ 100 nM	CC(C)(C)OCCNc1ccn2ncc(-c3ccc(CN)cc3)c2n1
	≤ 10 nM	NCc1ccc(-c2cnn3ccc(NCCc4ccccc4OC(F)(F)F)nc23)cc1
≤ 1000 nM		NCc1ccc(-c2cnc3ccc(NCC4CCCCC4)nn23)cc1
	≤ 100 nM	COc1ccncc1-c1cnn2ccc(NCCc3ccccc3OC(F)(F)F)nc12
≤ 100 nM		CN(C)CCOCc1ccc(-c2cnc3ccc(NCCC(C)(C)C)nn23)cc1
≤ 100 nM		CC(C)(C)OCCNc1ccc2ncc(-c3ccc(C(N)=O)cc3)n2n1
	≤ 100 nM	COc1cnccc1-c1cnn2ccc(NCCOC(C)(C)C)nc12
	≤ 100 nM	CCCCNc1ccn2ncc(-c3ccc(C(=O)NCCN)cc3)c2n1
	≤ 1000 nM	COCCNc1ccn2ncc(-c3ccccc3)c2n1
≤ 100 nM		COc1cnccc1-c1cnc2ccc(-c3cccc(C(=O)NCC(C)C)c3)nn12
≤ 100 nM		CNC(=O)c1ccc(-c2cnc3ccc(-c4cccc(C(=O)NCC(C)C)c4)nn23)cc1
≤ 100 nM		CC(C)NC(=O)N1CCN(c2ccc3ncc(-c4ccccc4)n3n2)CC1

IC50 [1]	IC50 [2]	Structure (SMILES)
≤ 1000 nM		CCCCSc1ccc2ncc(-c3ccc(CN)cc3)n2n1
	≤ 100 nM	COc1ccccc1-c1cnn2ccc(NC[C@@H]3CCCN3C(=O)NC(C)(C)C)nc12
≤ 100 nM		CC(C)OC(=O)N1CCC[C@H]1CNc1ccc2ncc(Cl)n2n1
≤ 100 nM		CC(C)(C)OC(=O)N1CCC[C@H]1CCNc1ccc2ncc(-c3ccc(CN)cc3)n2n1
	≤ 100 nM	CCc1ccccc1-c1cnn2ccc(NC[C@@H]3CCCN3C(=O)OC(C)(C)C)nc12
	≤ 1000 nM	CC(C)(C)OC(=O)N1CCC[C@H]1CNc1ccn2ncc(-c3ccc(C(N)=O)cc3)c2n1
	≤ 100 nM	CC(C)(C)OC(=O)N1CCC[C@H]1CNc1ccn2ncc(C(F)(F)F)c2n1
	≤ 100 nM	CC(C)(C)OC(=O)N1CCC[C@H]1CNc1ccn2ncc(I)c2n1
	≤ 100 nM	CC(C)(C)OC(=O)N1CCC[C@H]1CNc1ccn2ncc(-c3ccccc3)c2n1
	≤ 100 nM	CCOC(=O)N(C)CCNc1ccn2ncc(-c3ccc(C(=O)NC)cc3)c2n1
	≤ 100 nM	CC(C)OC(=O)N1CCN(c2ccn3ncc(-c4cccn(C)c4=O)c3n2)CC1
	≤ 100 nM	CCOc1ncccc1-c1cnn2ccc(N3CCN(C(=O)OC(C)C)CC3)nc12
	≤ 100 nM	COc1nc(C)ccc1-c1cnn2ccc(N3CCN(C(=O)OC(C)C)CC3)nc12
	≤ 100 nM	COc1cnccc1-c1cnn2ccc(N3CCN(C(=O)OC(C)C)CC3)nc12
	≤ 10 nM	CC(C)OC(=O)N(C)CCNc1ccn2ncc(-c3ccc(C(N)=O)cc3)c2n1
	≤ 100 nM	COc1ccncc1-c1cnn2ccc(NCCN(C)C(=O)OC(C)C)nc12
	≤ 10 nM	CNC(=O)c1ccc(-c2cnn3ccc(NCCN(C)C(=O)OC(C)(C)C)nc23)cc1

Further lines, the molecule ahead of its results:

Structure (SMILES)	IC50 [1]	IC50 [2]
COc1ncccc1-c1cnn2ccc(N3CCN(C(=O)CC(C)C)CC3)nc12		≤ 100 nM
COCCOC(=O)N1CCN(c2ccn3ncc(-c4cccnc4OC)c3n2)CC1		≤ 100 nM
CC(C)CNC(=O)c1cccc(-c2ccc3ncc(-c4ccc(CN)cc4)n3n2)c1	≤ 100 nM	
NCc1ccc(-c2cnn3ccc(NCCOC4CCCC4)nc23)cc1		≤ 100 nM
CC(C)(C)COCCNc1ccn2ncc(-c3ccc(CN)cc3)c2n1		≤ 100 nM
COCCNc1ccn2ncc(-c3ccc(CN)cc3)c2n1		≤ 100 nM
NCc1ccc(-c2cnn3ccc(NCCCOC4CCCC4)nc23)cc1		≤ 100 nM
CCCCNc1ccn2ncc(-c3ccc(CN)cc3)c2n1		≤ 100 nM
Brc1cnn2ccc(NCCCOC3CCCC3)nc12		≤ 1000 nM
CCCCNc1ccn2ncc(-c3ccc(C(=O)NCCNC)cc3)c2n1		≤ 100 nM
COc1cccc(CCNc2ccc3ncc(-c4ccc(C(N)=O)cc4)n3n2)c1	≤ 100 nM	
CC(C)CNC(=O)c1cncc(-c2ccc3ncc(-c4ccc(CN)cc4)n3n2)c1	≤ 100 nM	
CCCCNc1ccc2ncc(C(=O)Nc3ccc(C(=O)NCCN(C)C)cc3)n2n1	≤ 100 nM	
COc1cnccc1-c1cnn2ccc(NCCOC3CCCC3)nc12		≤ 100 nM
COCCNc1ccn2ncc(-c3ccc(C(=O)NCCN)cc3)c2n1		≤ 1000 nM
CC(C)(C)CCNc1ccn2ncc(-c3ccc(C(=O)NCCN)cc3)c2n1		≤ 1000 nM
COc1cnccc1-c1cnn2ccc(NCCCOC3CCCC3)nc12		≤ 100 nM
CNC(=O)c1ccc(-c2cnn3ccc(NCCN(C)C(=O)OCC(C)C)nc23)cc1		≤ 1000 nM
CC(C)OC(=O)N1CCN(c2ccn3ncc(-c4cccnc4F)c3n2)CC1		≤ 100 nM
COc1ncc(F)cc1-c1cnn2ccc(N3CCN(C(=O)OC(C)C)CC3)nc12		≤ 100 nM
COc1cnccc1-c1cnn2ccc(NCCN(C)C(=O)OC(C)C)nc12		≤ 10 nM
CC(C)OC(=O)N(C)CCNc1ccn2ncc(-c3ccc(CN)cc3)c2n1		≤ 100 nM
CNCCNC(=O)c1ccc(-c2cnn3ccc(NCCN(C)C(=O)OC(C)C)nc23)cc1		≤ 100 nM
CNC(=O)c1ccc(-c2cnn3ccc(NCCN(C)C(=O)OC(C)C)nc23)cc1		≤ 10 nM
CC(C)OC(=O)N(C)CCNc1ccn2ncc(-c3ccc(C4CCCN4)cc3)c2n1 (stereo not shown)		≤ 10 nM
COCCNc1ccn2ncc(-c3ccc(C(=O)NCCNC(=O)OC(C)(C)C)cc3)c2n1		≤ 1000 nM
COc1cnccc1-c1cnn2ccc(NCCN(C)C(=O)OC(C)(C)C)nc12		≤ 10 nM
CN(CCNc1ccn2ncc(-c3ccc(C(N)=O)cc3)c2n1)C(=O)OC(C)(C)C		≤ 10 nM
CN(CCNc1ccc2ncc(-c3ccc(C#N)cc3)n2n1)C(=O)OC(C)(C)C	≤ 100 nM	
CN(CCNc1ccc2ncc(-c3ccccc3)n2n1)C(=O)OC(C)(C)C	≤ 100 nM	
